Source: patent publication US20090232838A1, “Ligands of melanocortin receptors” (priority 2005, published 2009)
Where two headings read alike, the source gives them in different places. Where a SMILES comes first, the peptide text is derived from it. Bridges are numbered along the chain shown (N, C = ends). [ ]: non-standard residue; d: D form. 1Nal = N[C@@H](Cc1cccc2ccccc12)C(=O)O; d2Nal = N[C@H](Cc1ccc2ccccc2c1)C(=O)O

What was measured:
Type in all cases: cell-based
[1] = biological target: T1, hMC5-R (Homo sapiens, UniProt P33032); experiment: cyclic AMP bioassay, hMC5-R
T1 construct: expressed in transfected cells; host or cells: CHO-K1
T1 sequence (P33032 whole entry): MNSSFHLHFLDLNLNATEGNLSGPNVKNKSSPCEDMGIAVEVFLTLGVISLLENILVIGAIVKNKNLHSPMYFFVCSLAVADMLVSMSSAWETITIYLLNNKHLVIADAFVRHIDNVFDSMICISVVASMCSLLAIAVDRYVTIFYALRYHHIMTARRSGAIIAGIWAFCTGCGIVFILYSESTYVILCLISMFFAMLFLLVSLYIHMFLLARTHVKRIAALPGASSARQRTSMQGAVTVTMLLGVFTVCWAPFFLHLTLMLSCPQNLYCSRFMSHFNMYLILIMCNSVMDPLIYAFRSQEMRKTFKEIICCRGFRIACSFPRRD
Protocol: (§1) Intracellular cyclic AMP (cAMP) levels were determined by an electrochemiluminescence (ECL) assay (Meso Scale Discovery®, Gaithersburg, Md.; referred to hereinafter as MSD). […] Transgenic CHO-K1 cells stably expressing hMC receptor subtypes 1, 3, 4 or 5 were dispensed at a density of approximately 7,000 cells/well in 384-well Multi-Arrays plates (MSD) containing integrated carbon electrodes and coated with anti-CAMP antibody. Increasing concentrations of the test compounds were added and the cells were incubated for approximately 40 minutes at approximately 37° C. […] At the end of the second incubation period read buffer (Tris-buffered solution containing an ECL co-reactant and Triton X-100 at ph 7.8) was added and the cAMP levels in the cell lysates were immediately determined by ECL detection with a Sector Imager 6000 Reader® (MSD). Data were analyzed using a computer-assisted non-linear regression analysis (XL fit; IDBS) and reported as either an EC50 value or a Kb value.
(§2) The Kb value reflects the potency of an antagonist and is determined by Schild analysis. In brief, concentration-response curves of an agonist are carried out in the presence of increasing concentrations of an antagonist. […] It is calculated by extrapolating the line on a Schild plot to zero on the y-axis.

[2] = biological target: T2, hMC4-R (Homo sapiens, UniProt P32245); experiment: cyclic AMP bioassay, hMC4-R
T2 construct: expressed in transfected cells; host or cells: CHO-K1
T2 sequence (P32245 whole entry): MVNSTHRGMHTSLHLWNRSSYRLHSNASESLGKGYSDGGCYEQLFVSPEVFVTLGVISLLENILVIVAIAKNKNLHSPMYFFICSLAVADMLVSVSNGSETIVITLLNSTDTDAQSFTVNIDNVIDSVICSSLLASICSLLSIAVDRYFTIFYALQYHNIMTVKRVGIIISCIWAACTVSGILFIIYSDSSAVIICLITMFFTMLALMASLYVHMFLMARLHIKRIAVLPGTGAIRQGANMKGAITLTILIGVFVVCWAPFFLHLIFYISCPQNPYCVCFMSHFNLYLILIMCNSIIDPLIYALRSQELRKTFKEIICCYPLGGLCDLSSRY

[3] = biological target: T3, hMC1-R (Homo sapiens, UniProt Q01726); experiment: cyclic AMP bioassay, hMC1-R
T3 construct: expressed in transfected cells; host or cells: CHO-K1
T3 sequence (Q01726 whole entry): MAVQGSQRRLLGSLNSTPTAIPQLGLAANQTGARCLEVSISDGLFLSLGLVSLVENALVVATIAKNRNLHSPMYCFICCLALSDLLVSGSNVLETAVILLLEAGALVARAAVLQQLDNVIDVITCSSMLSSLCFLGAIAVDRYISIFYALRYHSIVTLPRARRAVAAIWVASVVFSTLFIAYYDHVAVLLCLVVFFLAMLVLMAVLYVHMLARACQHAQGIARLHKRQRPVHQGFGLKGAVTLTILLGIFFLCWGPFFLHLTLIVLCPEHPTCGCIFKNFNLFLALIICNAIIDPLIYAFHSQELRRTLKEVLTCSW
Protocol: as §1, §2

[4] = biological target: T4, hMC3-R (Homo sapiens, UniProt P41968); experiment: cyclic AMP bioassay, hMC3-R
T4 construct: expressed in transfected cells; host or cells: CHO-K1
T4 sequence (P41968 whole entry): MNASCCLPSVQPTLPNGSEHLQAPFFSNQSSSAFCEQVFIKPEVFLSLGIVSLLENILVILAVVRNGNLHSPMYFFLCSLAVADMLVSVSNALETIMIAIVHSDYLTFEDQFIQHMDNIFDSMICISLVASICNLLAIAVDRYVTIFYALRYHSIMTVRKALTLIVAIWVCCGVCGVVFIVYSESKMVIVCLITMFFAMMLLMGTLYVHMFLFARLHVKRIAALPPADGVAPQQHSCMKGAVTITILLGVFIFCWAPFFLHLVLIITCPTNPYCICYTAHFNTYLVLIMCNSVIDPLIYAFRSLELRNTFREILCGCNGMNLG

[5] = Table 3A, cAMP in CHO-K1 cells, agonist, read-out: EC50 hMC5-R
[6] = Table 3A, cAMP in CHO-K1 cells, antagonist potency by Schild analysis, read-out: Kb hMC4-R
[7] = Table 3A, cAMP in CHO-K1 cells, agonist, read-out: EC50 hMC1-R
[8] = Table 3A, cAMP in CHO-K1 cells, antagonist potency by Schild analysis, read-out: Kb hMC3-R

Structure (SMILES)	EC50 [1]	EC50 [2]	EC50 [3]	EC50 [4]	EC50 [1, 5]	Kb [2, 6]	EC50 [3, 7]	Kb [4, 8]	Kb [2]	Kb [4]
CCCC[C@H](NC(C)=O)C(=O)N[C@H]1CSSC[C@@H](C(=O)NCCOCCOCC(=O)NCCOCCOCC(=O)N[C@@H](Cc2ccc(O)cc2)C(=O)NCC(=O)N[C@@H](CCCNC(=N)N)C(=O)N[C@@H](CCCCN)C(=O)N[C@@H](CCCCN)C(=O)N[C@@H](CCCNC(=N)N)C(=O)N[C@@H](CCCNC(=N)N)C(=O)N[C@@H](CCC(N)=O)C(=O)N[C@@H](CCCNC(=N)N)C(=O)N[C@@H](CCCNC(=N)N)C(=O)N[C@@H](CCCNC(=N)N)C(N)=O)NC(=O)[C@H](Cc2c[nH]c3ccccc23)NC(=O)[C@H](CCCNC(=N)N)NC(=O)[C@@H](Cc2ccccc2)NC(=O)[C@H](Cc2c[nH]cn2)NC(=O)[C@@H](C)NC1=O	0.147 µM	0.000634 µM	0.0047 µM	0.00456 µM						
CC(=O)N[C@H]1CSSC[C@@H](C(=O)N2CCC[C@H]2C(=O)N2CCC[C@H]2C(=O)N[C@@H](CCCCN)C(=O)N[C@@H](CC(=O)O)C(=O)NCCC(=O)N[C@@H](Cc2ccc(O)cc2)C(=O)NCC(=O)N[C@@H](CCCNC(=N)N)C(=O)N[C@@H](CCC(N)=O)C(=O)N[C@@H](CCCCN)C(=O)N[C@@H](CCCCN)C(=O)N[C@@H](CCCNC(=N)N)C(=O)N[C@@H](CCCNC(=N)N)C(=O)N[C@@H](CCCNC(=N)N)C(=O)N[C@@H](CCCNC(=N)N)C(=O)N[C@@H](CCCNC(=N)N)C(N)=O)NC(=O)[C@H](C)NC(=O)[C@H](Cc2c[nH]c3ccccc23)NC(=O)[C@H](CCCNC(=N)N)NC(=O)[C@@H](Cc2ccc3ccccc3c2)NC(=O)[C@H](Cc2c[nH]cn2)NC(=O)[C@H](CCC(=O)O)NC1=O					0.0542 µM	0.00938 µM	0.012 µM	0.0137 µM		
CC(=O)N[C@H]1CSSC[C@@H](C(=O)N2CCC[C@H]2C(=O)N2CCC[C@H]2C(=O)N[C@@H](CCCCN)C(=O)N[C@@H](CC(=O)O)C(N)=O)NC(=O)[C@H](C)NC(=O)[C@H](Cc2cccc3ccccc23)NC(=O)[C@H](CCCNC(=N)N)NC(=O)[C@@H](Cc2ccc3ccccc3c2)NC(=O)[C@H](Cc2c[nH]cn2)NC(=O)[C@H](CCC(=O)O)NC1=O [Ac-c(Cys-Glu-His-D-2-Nal-Arg-1-Nal-Ala-Cys)-Pro-Pro-Lys-Asp-NH2] (Ac-CEH[d2Nal]R[1Nal]ACPPKD-NH2; disulfide 1-8)	0.104 µM		0.269 µM						0.00592 µM	0.105 µM
CC(=O)N[C@H]1CSSC[C@@H](C(=O)N2CCC[C@H]2C(=O)N2CCC[C@H]2C(=O)N[C@@H](CCCCN)C(=O)N[C@@H](CC(=O)O)C(=O)NCCC(=O)N[C@@H](Cc2ccc(O)cc2)C(=O)NCC(=O)N[C@@H](CCCNC(=N)N)C(=O)N[C@@H](CCCCN)C(=O)N[C@@H](CCCNC(=N)N)C(=O)N[C@@H](CCCNC(=N)N)C(=O)N[C@@H](CCCNC(=N)N)C(=O)N[C@@H](CCC(N)=O)C(=O)N[C@@H](CCCNC(=N)N)C(=O)N[C@@H](CCCNC(=N)N)C(=O)N[C@@H](CCCNC(=N)N)C(N)=O)NC(=O)[C@H](C)NC(=O)[C@H](Cc2ccc3ccccc3c2)NC(=O)[C@H](CCCNC(=N)N)NC(=O)[C@@H](Cc2ccc3ccccc3c2)NC(=O)[C@H](Cc2c[nH]cn2)NC(=O)[C@H](CCC(=O)O)NC1=O	0.0282 µM		0.0347 µM						0.00868 µM	0.015 µM
CC(=O)N[C@H]1CSSC[C@@H](C(=O)N2CCC[C@H]2C(=O)N2CCC[C@H]2C(=O)N[C@@H](CCCCN)C(=O)N[C@@H](CC(=O)O)C(=O)NCCOCCOCC(=O)N[C@@H](Cc2ccc(O)cc2)C(=O)NCC(=O)N[C@@H](CCCNC(=N)N)C(=O)N[C@@H](CCCCN)C(=O)N[C@@H](CCCCN)C(=O)N[C@@H](CCCNC(=N)N)C(=O)N[C@@H](CCCNC(=N)N)C(=O)N[C@@H](CCC(N)=O)C(=O)N[C@@H](CCCNC(=N)N)C(=O)N[C@@H](CCCNC(=N)N)C(=O)N[C@@H](CCCNC(=N)N)C(N)=O)NC(=O)[C@H](C)NC(=O)[C@H](Cc2c[nH]c3ccccc23)NC(=O)[C@H](CCCNC(=N)N)NC(=O)[C@@H](Cc2ccc3ccccc3c2)NC(=O)[C@H](Cc2c[nH]cn2)NC(=O)[C@H](CCC(=O)O)NC1=O					0.07 µM	0.00181 µM	0.0121 µM	0.0303 µM		
